Tested on: rats
Test: Fear potentiated startle (FPS) test in rats
Assay type: in vivo, rat
Conditions: i.v.; furosemide 100 mg/kg, bumetanide 70 mg/kg
Method: FPS is a commonly used assessment of therapeutic value of anxiolytic compounds in the rat. Rats received a 30 min period of habituation to the FPS apparatus. 24-hr later baseline startle amplitudes were collected. The rats will be divided into two matched groups based on baseline startle amplitudes. Following baseline startle amplitude collection 20 light/shock pairings were delivered on 2 sessions over 2 consecutive days (i.e., 10 light/shock pairings per day). On the final day, one group of rats received an injection (i.v.) of a bumetanide analog and the other group received vehicle only. Immediately following injections, startle amplitudes were assessed during startle alone trials and startle plus fear (light followed by startle) trials. Fear potentiated startle (light+startle amplitudes minus startle alone amplitudes) was compared between the treatment groups.
Animals were trained and tested in four identical stabilimeter devices (Med-Associates). Briefly, each rat was placed in a small Plexiglas cylinder. The floor of each stabilimeter consists of four 6-mm-diameter stainless steel bars spaced 18 mm apart through which shock can be delivered. Cylinder movements result in displacement of an accelerometer where the resultant voltage is proportional to the velocity of the cage displacement. Startle amplitude is defined as the maximum accelerometer voltage that occurs during the first 0.25 sec after the startle stimulus is delivered. The analog output of the accelerometer is amplified, digitized on a scale of 0-4096 units and stored on a microcomputer. Each stabilimeter is enclosed in a ventilated, light-, and sound-attenuating box. All sound level measurements were made with a Precision Sound Level Meter. The noise of a ventilating fan attached to a sidewall of each wooden box produces an overall background noise level of 64 dB. The startle stimulus is a 50 ms burst of white noise (5 ms rise-decay time) generated by a white noise generator. The visual conditioned stimulus used was illumination of a light bulb adjacent to the white noise source. The unconditioned stimulus was a 0.6 mA foot shock with duration of 0.5 sec, generated by four constant-current shockers located outside the chamber. The presentation and sequencing of all stimuli were under the control of the microcomputer.
FPS procedures consisted of 5 days of testing; during days 1 and 2 baseline startle responses were collected, days 3 and 4 light/shock pairings were delivered, day 5-testing for fear potentiated startle was conducted.
Matching. On the first two days all rats were placed in the Plexiglas cylinders and 3 min later presented with 30 startle stimuli at a 30 sec interstimulus interval. An intensity of 105 dB was used. […]

SMILES: CCCCNc1cc(C(=O)O)cc(S(N)(=O)=O)c1Oc1ccccc1 [Bumetanide, reference compound]
- Difference score on the test day vs vehicle alone: statistically significantly lower difference score
- Difference score one week after treatment vs vehicle alone: higher difference score
